Measured values taken from PubChem BioAssay AID1963836 (Molecular Pharmacology Branch, DTP, NCI, 2024).

Test system: 857933-349-R-J2-PDC complex spheroid viability
Assay: Anticancer human tumor 857933-349-R-J2-PDC patient-derived colon adenocarcinoma cell line growth inhibition [POLQ]
Conditions: for IC50: curve of first compound; for viability, T/C: stronger effect = lower value
Procedure, shortened: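 PDC + HUVEC + MSC complex spheroids; POLQ inhibitors ± partner drugs; top conc. at/near clinical Cmax, else 10 microM (SN-38 1 microM), half-log dilutions; 37 degrees C, 5% CO2.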

[1] = second compound 0.0316 µM, first compound 0.0316 µM
[2] = second compound 0.0316 µM, first compound 0.1 µM
[3] = second compound 0.0316 µM, first compound 0.316 µM
[4] = second compound 0.0316 µM, first compound 1 µM
[5] = second compound 0.0316 µM, first compound 3.16 µM
[6] = second compound 0.0316 µM, first compound 10 µM
[7] = second compound 0.1 µM, first compound 0.0316 µM
[8] = second compound 0.1 µM, first compound 0.1 µM
[9] = second compound 0.1 µM, first compound 0.316 µM
[10] = second compound 0.1 µM, first compound 1 µM
[11] = second compound 0.1 µM, first compound 3.16 µM
[12] = second compound 0.1 µM, first compound 10 µM
[13] = second compound 0.316 µM, first compound 0.0316 µM
[14] = second compound 0.316 µM, first compound 0.1 µM
[15] = second compound 0.316 µM, first compound 0.316 µM
[16] = second compound 0.316 µM, first compound 1 µM
[17] = second compound 0.316 µM, first compound 3.16 µM
[18] = second compound 0.316 µM, first compound 10 µM
[19] = second compound 1 µM, first compound 0.0316 µM
[20] = second compound 1 µM, first compound 0.1 µM
[21] = second compound 1 µM, first compound 0.316 µM
[22] = second compound 1 µM, first compound 1 µM
[23] = second compound 1 µM, first compound 3.16 µM
[24] = second compound 1 µM, first compound 10 µM
[25] = second compound 3.16 µM, first compound 0.0316 µM
[26] = second compound 3.16 µM, first compound 0.1 µM
[27] = second compound 3.16 µM, first compound 0.316 µM
[28] = second compound 3.16 µM, first compound 1 µM
[29] = second compound 3.16 µM, first compound 3.16 µM
[30] = second compound 3.16 µM, first compound 10 µM
[31] = second compound 10 µM, first compound 0.0316 µM
[32] = second compound 10 µM, first compound 0.1 µM
[33] = second compound 10 µM, first compound 0.316 µM
[34] = second compound 10 µM, first compound 1 µM
[35] = second compound 10 µM, first compound 3.16 µM
[36] = second compound 10 µM, first compound 10 µM
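Also: spheroids exposed to compounds for seven days before readout.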

**Q.** How did the IC50 (second compound 0.0316 µM) turn out when `CC1COCCN1c1cc(-c2ccnn2C)c2ccnc(-c3ccn[nH]3)c2n1` (centres undefined) + Cc1cccc(N(C)C(=O)C2C(O)CCN2c2nc(C)cc(C(F)(F)F)c2C#N)c1 was run?
**A.** 186 nM

**Q.** What about the IC50 (second compound 0.1 µM) of the same compound?
**A.** 212 nM

**Q.** And the IC50 (second compound 0.316 µM)?
**A.** 235 nM

**Q.** What about the IC50 (second compound 1 µM) of the same compound?
**A.** 181 nM

**Q.** And the IC50 (second compound 3.16 µM)?
**A.** 153 nM

**Q.** And the IC50 (second compound 10 µM)?
**A.** 92.5 nM

**Q.** And the viability, T/C [1]?
**A.** 58.7%

**Q.** What about the viability, T/C [2] of the same compound?
**A.** 55.3%

**Q.** And the viability, T/C [3]?
**A.** 44%

**Q.** What about the viability, T/C [4] of the same compound?
**A.** 29.7%

**Q.** What about the viability, T/C [5] of the same compound?
**A.** 32.7%

**Q.** And the viability, T/C [6]?
**A.** 36.6%

**Q.** What about the viability, T/C [7] of the same compound?
**A.** 71.6%

**Q.** And the viability, T/C [8]?
**A.** 73.2%

**Q.** What about the viability, T/C [9] of the same compound?
**A.** 38.1%

**Q.** What about the viability, T/C [10] of the same compound?
**A.** 34.2%

**Q.** What about the viability, T/C [11] of the same compound?
**A.** 42.9%

**Q.** What about the viability, T/C [12] of the same compound?
**A.** 37.2%

**Q.** What about the viability, T/C [13] of the same compound?
**A.** 73.2%

**Q.** What about the viability, T/C [14] of the same compound?
**A.** 68.3%

**Q.** And the viability, T/C [15]?
**A.** 43.9%

**Q.** What about the viability, T/C [16] of the same compound?
**A.** 31.3%

**Q.** What about the viability, T/C [17] of the same compound?
**A.** 49.6%

**Q.** And the viability, T/C [18]?
**A.** 45.4%

**Q.** And the viability, T/C [19]?
**A.** 58.9%

**Q.** And the viability, T/C [20]?
**A.** 63.4%

**Q.** What about the viability, T/C [21] of the same compound?
**A.** 37.6%

**Q.** What about the viability, T/C [22] of the same compound?
**A.** 34.4%

**Q.** What about the viability, T/C [23] of the same compound?
**A.** 42.6%

**Q.** And the viability, T/C [24]?
**A.** 43.4%

**Q.** And the viability, T/C [25]?
**A.** 65.9%

**Q.** What about the viability, T/C [26] of the same compound?
**A.** 55.4%

**Q.** And the viability, T/C [27]?
**A.** 44.6%

**Q.** What about the viability, T/C [28] of the same compound?
**A.** 38.3%

**Q.** And the viability, T/C [29]?
**A.** 43%

**Q.** What about the viability, T/C [30] of the same compound?
**A.** 45.6%

**Q.** What about the viability, T/C [31] of the same compound?
**A.** 49.8%

**Q.** What about the viability, T/C [32] of the same compound?
**A.** 59.9%

**Q.** And the viability, T/C [33]?
**A.** 40%

**Q.** What about the viability, T/C [34] of the same compound?
**A.** 37.6%

**Q.** And the viability, T/C [35]?
**A.** 47.5%

**Q.** And the viability, T/C [36]?
**A.** 34.9%

**Q.** With `CC1COCCN1c1cc(C2(S(C)(=N)=O)CC2)nc(-c2ccnc3[nH]ccc23)n1` (centres undefined) + Cc1cccc(N(C)C(=O)C2C(O)CCN2c2nc(C)cc(C(F)(F)F)c2C#N)c1 as the compound, how does the IC50 (second compound 0.0316 µM) read?
**A.** 3210 nM

**Q.** What about the IC50 (second compound 0.1 µM) of the same compound?
**A.** 3880 nM

**Q.** And the IC50 (second compound 0.316 µM)?
**A.** 2710 nM

**Q.** And the IC50 (second compound 1 µM)?
**A.** 4380 nM

**Q.** What about the IC50 (second compound 3.16 µM) of the same compound?
**A.** 5540 nM

**Q.** And the IC50 (second compound 10 µM)?
**A.** 4770 nM

**Q.** And the viability, T/C [1]?
**A.** 97.9%

**Q.** What about the viability, T/C [2] of the same compound?
**A.** 105%

**Q.** And the viability, T/C [3]?
**A.** 95%

**Q.** What about the viability, T/C [4] of the same compound?
**A.** 78.2%

**Q.** And the viability, T/C [5]?
**A.** 50.4%

**Q.** What about the viability, T/C [6] of the same compound?
**A.** 36.4%

**Q.** And the viability, T/C [7]?
**A.** 88.6%

**Q.** And the viability, T/C [8]?
**A.** 112%

**Q.** And the viability, T/C [9]?
**A.** 87.4%

**Q.** What about the viability, T/C [10] of the same compound?
**A.** 76.3%

**Q.** What about the viability, T/C [11] of the same compound?
**A.** 55.2%

**Q.** And the viability, T/C [12]?
**A.** 32.5%

**Q.** And the viability, T/C [13]?
**A.** 75%

**Q.** And the viability, T/C [14]?
**A.** 81.5%

**Q.** And the viability, T/C [15]?
**A.** 101%

**Q.** What about the viability, T/C [16] of the same compound?
**A.** 69.8%

**Q.** What about the viability, T/C [17] of the same compound?
**A.** 48.7%

**Q.** And the viability, T/C [18]?
**A.** 35.4%

**Q.** And the viability, T/C [19]?
**A.** 92.9%

**Q.** And the viability, T/C [20]?
**A.** 91.7%

**Q.** What about the viability, T/C [21] of the same compound?
**A.** 102%

**Q.** And the viability, T/C [22]?
**A.** 74.8%

**Q.** And the viability, T/C [23]?
**A.** 57.4%

**Q.** And the viability, T/C [24]?
**A.** 36.6%

**Q.** And the viability, T/C [25]?
**A.** 95.5%

**Q.** And the viability, T/C [26]?
**A.** 98.2%

**Q.** And the viability, T/C [27]?
**A.** 84.4%

**Q.** And the viability, T/C [28]?
**A.** 78.8%

**Q.** And the viability, T/C [29]?
**A.** 52.3%

**Q.** What about the viability, T/C [30] of the same compound?
**A.** 45.8%

**Q.** What about the viability, T/C [31] of the same compound?
**A.** 80.1%

**Q.** What about the viability, T/C [32] of the same compound?
**A.** 84.7%

**Q.** What about the viability, T/C [33] of the same compound?
**A.** 88.6%

**Q.** And the viability, T/C [34]?
**A.** 72.5%

**Q.** And the viability, T/C [35]?
**A.** 57.4%

**Q.** And the viability, T/C [36]?
**A.** 38.2%
